Data on two molecules can be found in patent EP4282435A1, “FORMULATIONS OF ACTIVE PHARMACEUTICAL INGREDIENTS AND EXCIPIENTS IN ICELLS VIA HYDROPHOBIC ION PAIRING” (Danmarks Tekniske Universitet, priority 2022, dated 2023).

Counter-ions that a name gives are not always drawn. Like-named read-outs stand apart in the source and are kept apart here.

The procedure of data set [1]: After removing the supernatant, the complex was dissolved in methanol, transferred to a new glass vial and the solvent was dried under a gentle nitrogen flow. […] ICell was proportionally added to a vial containing Abaloparatide in its native form to achieve a final Abaloparatide concentration of 1 mg/g. Abaloparatide-HIP complexes were pre-dissolved in DMSO (corresponding to 5% weight of the final formulation), followed by the proportional addition of ICell to obtain a final Abaloparatide concentration of 1 mg/g.

Another data set has as its system S. aureus strain S54F9. The data set is described as follows: Microbiological assay, Disc Diffusion Assay. It is filed as cell-based, Staphylococcus aureus. The conditions noted are these: Example 24, wells: 0.5 mg linoleic acid in DMSO; 0.5 mg vancomycin hydrochloride; 45 µl HIP complex + 45 µl PBS; 24 hours at 37 °C. Here is the method: Then, 3 wells were carved out with the use of the broad side of an autoclaved 1 ml pipette tip.
This setup was repeated for three experimental replicates. Each plate was incubated for 24 hours at 37 °C, before inspection.
Then, 3 wells were carved out with the use of the broad side of an autoclaved 1 ml pipette tip. In one well, 0.5 mg linoleic acid was injected as 90 µl 0.22 µm-sterile-filtered dimethyl sulfoxide. In a second well, 90 µl autoclaved phosphate-buffered saline with 0.5 mg vancomycin hydrochloride was injected. […] The plate was incubated for 24 hours at 37 °C, before inspection.

For data set [2] the following is noted: SuBen:GTH:DMSO (60:15:25) ICell, visual.

With `CC[C@H](C)[C@H](NC(=O)[C@H](CO)NC(=O)[C@H](CCCCN)NC(=O)CNC(=O)[C@H](CCCCN)NC(=O)[C@H](CC(=O)O)NC(=O)[C@H](Cc1cnc[nH]1)NC(=O)[C@H](CC(C)C)NC(=O)[C@H](CC(C)C)NC(=O)[C@H](CCC(N)=O)NC(=O)[C@H](Cc1cnc[nH]1)NC(=O)[C@H](CCC(=O)O)NC(=O)[C@H](CO)NC(=O)[C@@H](NC(=O)[C@H](C)N)C(C)C)C(=O)N[C@@H](CCC(N)=O)C(=O)N[C@@H](CC(=O)O)C(=O)N[C@@H](CC(C)C)C(=O)N[C@@H](CCCNC(=N)N)C(=O)N[C@@H](CCCNC(=N)N)C(=O)N[C@@H](CCCNC(=N)N)C(=O)N[C@@H](CCC(=O)O)C(=O)N[C@@H](CC(C)C)C(=O)N[C@@H](CC(C)C)C(=O)N[C@@H](CCC(=O)O)C(=O)N[C@@H](CCCCN)C(=O)N[C@@H](CC(C)C)C(=O)N[C@@H](CC(C)C)C(=O)NC(C)(C)C(=O)N[C@@H](CCCCN)C(=O)N[C@@H](CC(C)C)C(=O)N[C@@H](Cc1cnc[nH]1)C(=O)N[C@H](C(=O)N[C@@H](C)C(N)=O)[C@@H](C)O` [Abaloparatide], the “solubility in ICell” value in data set [1] is listed as “insoluble”.
With `CN[C@H](CC(C)C)C(=O)N[C@H]1C(=O)N[C@@H](CC(N)=O)C(=O)N[C@H]2C(=O)N[C@H]3C(=O)N[C@H](C(=O)N[C@H](C(=O)O)c4cc(O)cc(O)c4-c4cc3ccc4O)[C@H](O)c3ccc(c(Cl)c3)Oc3cc2cc(c3O[C@@H]2O[C@H](CO)[C@@H](O)[C@H](O)[C@H]2O[C@H]2C[C@](C)(N)[C@H](O)[C@H](C)O2)Oc2ccc(cc2Cl)[C@H]1O` [Vancomycin hydrochloride], the “antimicrobial activity (clearance of S. aureus)” value in the data set on S. aureus strain S54F9 is “clearance of S. aureus bacteria”. In data set [2], the “solubility in ICell” value is recorded as “not dissolvable”.
